Experimental data published in patent publication US20240239786A1, “COMPOSITIONS AND METHODS FOR THE TREATMENT AND PREVENTION OF CANCER” (Yale University, priority 2021, published 2024).

Assays:
SKOV3 xenografts = assay: Subcutaneous growth of SKOV3 xenografts; assay type: in vivo, NCG mice; settings: i.p., 4 weeks; olaparib 50 mg/kg qd, DB4 10 mg/kg q2d
Experimental: SCID-Beige mice implanted ip with PEO4ip cells were treated daily (qd) with DB4 (10 mg/kg), olaparib (50 mg/kg), and the DB4-olaparib combination for 4 weeks. Kaplan Meier analysis was performed to determine the survival time of mice following treatments. Statistical significance was determined by the Mantel-Cox test comparing the control with each treatment group (N=4-5). […] DB4 given every two days (q2d) in the DB4-olaparib combination for 4 or 6 weeks (n=4-5). […] NOD CRISPR Prkdc Il2r Gamma (NCG) mice implanted sc with SKOV3 cells were treated as described in FIG. 10C for 4 weeks during which the tumor size was measured. Statistical significance was determined by the Wilcoxon matched-pairs signed test comparing the control with each treatment group and comparing between treatment groups. […]
The efficacy of the combination of DB4 and olaparib to treat SKOV3 tumor xenografts, as determined by the tumor size, was ascertained in a subcutaneous (s.c.) mouse model (Ratner E S et al., 2016, Br J Cancer, 114:777-786; Lin Z P et al., 2018, PLOS One, 13:e0207399). […]
The progression of PEO4ip tumor xenografts in mice was evaluated by measuring the size of the circumference at the lower one-third of the abdominal area with the mouse head positioned upward. […] The growth of SKOV3 tumor xenografts was evaluated by the size of s.c. tumor using a digital caliper. […]

RNR = assay: dNTP measurement (HIV-1 RT-based dNTP assay) in PEO4 cells; assay type: cell-based; settings: 50 μM DB4 or 1 μM triapine, 24 hr
Experimental: FIG. 2, comprising FIG. 2A through FIG. 2F, depicts representative results of follow-up assays of in silico hit compounds in PEO1 and PEO4 cells. FIG. 2A depicts representative results of cytotoxicity assays on selected 25 in silico hit compounds in PEO1 and PEO4 cells. Cells were plated for 24 hr and then treated with 50 μM compounds for 72 hr. For a positive control, cells were treated with 1 μM triapine for 72 hr. The percentage of cell survival was determined by the MTS cytotoxicity assay. […] Cells were treated with 50 μM compounds or 1 μM triapine for 24 hr. During the last hour, cells were pulse-labeled with EdU, stained with the Click-iT EdU Alexa Fluor 488 Assay Kit, counterstained with 7-AAD, and subsequently analyzed by flow cytometry. EdU-positive cells were gated to determine the percentage of the S phase cell population. […] During the last hour, cells were pulse-labeled with EdU, stained with the Click-iT EdU Alexa Fluor 488 Assay Kit, counterstained with 7-AAD, and subsequently analyzed by flow cytometry. […] The percentages of DNA synthesis in cells treated with each of 10 compounds and triapine relative to the DMSO-treated control is calculated and shown. […] Cells were extracted with 65% methanol for determination of each of dNTPs expressed as pmole/10^6 cells. […] The percentage of cell survival was determined by the MTS cytotoxicity assay. […]

| SMILES | inhibition of subcutaneous growth of SKOV3 xenografts (tumor size) (SKOV3 xenografts) | levels of dNTPs (RNR) |
| --- | --- | --- |
| O=C(c1cc(Cc2n[nH]c(=O)c3ccccc23)ccc1F)N1CCN(C(=O)C2CC2)CC1 [olaparib, reference compound] | moderately but significantly inhibited | – |
| NC(=S)NN=Cc1ncccc1N [triapine, 3-aminopyridine-2-carboxaldehyde-thiosemicarbazone, reference compound] | – | significant and pronounced decreases in the levels of dATP and dGTP while causing a marked increase in dCTP and somewhat elevated dTTP |
| C=CCn1c(SCc2cccc(Cl)c2)nnc1C1CCN(Cc2nc3ccccc3s2)CC1 [DB4, 2-[(4-{4-allyl-5-[(3-chlorobenzyl)thio]-4H-1,2,4-triazol-3-yl}-1-piperidinyl)methyl]-1,3-benzothiazole] | moderately but significantly inhibited | significant decreases in the levels of dATP, dGTP, and dTTP |
